Data from patent publication US9663464B2, “Carbazole derivatives acting on 5-HT7 receptor” (KOREA INSTITUTE OF SCIENCE AND TECHNOLOGY, priority 2015, dated 2017).
Counter-ions that a name gives are not always drawn.

What was measured:
[1] = biological target: T1, human gene recombinant 5-HT7 receptor expressed in CHO cells (Homo sapiens, UniProt P34969); test: Binding affinity for the 5-HT7 serotonin receptor ([3H]LSD radioligand)
T1 construct: expressed in transfected cells; host or cells: CHO cells (membrane preparation)
Procedure: In this example, the human gene recombinant 5-HT7 receptor expressed in CHO cells was used. 1 nM [^3H]LSD, 5-HT7 receptor membrane (15 μg/well), a test drug, 10 mM MgCl2, 50 mM Tris-HCl buffer (pH 7.4) containing 0.1 mM EDTA, etc. were added to a vessel until the final volume reached 0.25 ml. The test drug was used at various concentrations. The mixture was cultured at 25° C. for 90 min. The culture was rapidly filtered through a Whatman GF/C glass fiber filter, which had been previously wetted with 0.3% polyethyleneimine using a Brandel harvester, to quench the reaction. The reaction mixture was washed with cold 50 mM Tris-HCl buffer. The filter was covered with MeltiLex, sealed in a sample bag, and dried in an oven. Counting was performed using MicroBeta (Wallac) and nonspecific binding was measured in the presence of […]. The K value of the test drug was obtained from nonlinear regression analysis (GraphPad Prism Program, San Diego, USA) of isotherms obtained by repeatedly performing the experiment on the drug at 10-11 stage concentrations in two test tubes (each twice).
The % inhibition values of the inventive compounds having different Y structures at a concentration of 10 μM against the 5-HT7 serotonin receptor were measured. Further, the binding affinity (Ki) values of the inventive compounds having different Y structures at a concentration of 10 μM for the 5-HT7 serotonin receptor were measured.

5-HT1E = 5-HT1E (Homo sapiens, UniProt P28566); test: 5-HT1E receptor inhibition (Table 1); assay type: binding
5-HT2C = biological target: T2, 5-HT2C (Homo sapiens, UniProt P28335); test: 5-HT2C receptor inhibition/binding (Tables 1-3)
T2 sequence (P28335 33-458): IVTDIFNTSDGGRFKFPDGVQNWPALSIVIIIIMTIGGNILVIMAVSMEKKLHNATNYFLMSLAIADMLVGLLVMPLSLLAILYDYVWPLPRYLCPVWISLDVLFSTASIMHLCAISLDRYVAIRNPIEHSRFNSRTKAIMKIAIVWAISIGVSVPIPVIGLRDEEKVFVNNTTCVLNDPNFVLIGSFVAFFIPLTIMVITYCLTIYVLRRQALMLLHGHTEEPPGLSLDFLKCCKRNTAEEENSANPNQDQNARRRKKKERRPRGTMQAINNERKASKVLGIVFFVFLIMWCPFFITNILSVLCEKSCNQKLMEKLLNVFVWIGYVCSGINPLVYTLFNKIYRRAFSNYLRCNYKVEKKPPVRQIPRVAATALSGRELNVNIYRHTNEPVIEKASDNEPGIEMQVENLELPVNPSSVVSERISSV

5-HT6 = 5-HT6 (Homo sapiens, UniProt P50406); test: 5-HT6 receptor inhibition/binding (Tables 2-3); settings: 10 μM
5-HT1A = biological target: T3, 5-HT1A (Homo sapiens, UniProt P08908); test: 5-HT1A receptor inhibition (Table 3); assay type: binding
T3 sequence (P08908 1-422): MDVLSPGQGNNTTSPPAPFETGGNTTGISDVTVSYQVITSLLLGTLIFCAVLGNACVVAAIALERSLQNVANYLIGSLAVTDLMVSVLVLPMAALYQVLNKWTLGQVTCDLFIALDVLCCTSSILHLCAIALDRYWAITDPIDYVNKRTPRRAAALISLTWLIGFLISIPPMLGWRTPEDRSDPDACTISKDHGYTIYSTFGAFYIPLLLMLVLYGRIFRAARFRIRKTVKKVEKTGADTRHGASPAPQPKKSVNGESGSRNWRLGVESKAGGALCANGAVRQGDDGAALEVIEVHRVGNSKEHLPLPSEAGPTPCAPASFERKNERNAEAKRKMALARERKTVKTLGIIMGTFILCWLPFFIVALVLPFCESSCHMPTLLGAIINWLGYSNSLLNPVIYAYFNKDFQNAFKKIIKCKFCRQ

5-HT6, sequence (P50406 whole entry, species assumed): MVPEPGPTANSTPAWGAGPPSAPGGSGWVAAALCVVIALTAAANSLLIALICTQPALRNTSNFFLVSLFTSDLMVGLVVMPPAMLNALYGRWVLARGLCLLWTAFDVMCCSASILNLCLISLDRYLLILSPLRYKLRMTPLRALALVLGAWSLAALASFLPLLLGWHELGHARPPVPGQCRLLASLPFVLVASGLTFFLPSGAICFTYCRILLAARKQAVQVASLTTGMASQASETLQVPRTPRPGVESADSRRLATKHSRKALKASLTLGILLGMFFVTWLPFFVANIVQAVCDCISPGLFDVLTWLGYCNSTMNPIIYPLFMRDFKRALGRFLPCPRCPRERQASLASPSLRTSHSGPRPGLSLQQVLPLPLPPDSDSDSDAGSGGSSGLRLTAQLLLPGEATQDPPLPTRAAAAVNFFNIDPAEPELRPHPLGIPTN
5-HT1E, sequence (P28566 whole entry, species assumed): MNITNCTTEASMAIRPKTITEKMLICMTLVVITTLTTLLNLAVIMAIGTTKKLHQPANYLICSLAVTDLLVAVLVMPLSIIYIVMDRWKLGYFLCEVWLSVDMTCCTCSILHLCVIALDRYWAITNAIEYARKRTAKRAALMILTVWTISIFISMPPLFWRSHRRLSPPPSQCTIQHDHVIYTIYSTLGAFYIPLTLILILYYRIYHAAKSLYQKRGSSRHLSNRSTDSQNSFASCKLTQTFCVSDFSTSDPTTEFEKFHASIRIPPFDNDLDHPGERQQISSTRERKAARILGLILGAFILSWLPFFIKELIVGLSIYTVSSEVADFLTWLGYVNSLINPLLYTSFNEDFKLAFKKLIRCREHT
T1 sequence (P34969 whole entry): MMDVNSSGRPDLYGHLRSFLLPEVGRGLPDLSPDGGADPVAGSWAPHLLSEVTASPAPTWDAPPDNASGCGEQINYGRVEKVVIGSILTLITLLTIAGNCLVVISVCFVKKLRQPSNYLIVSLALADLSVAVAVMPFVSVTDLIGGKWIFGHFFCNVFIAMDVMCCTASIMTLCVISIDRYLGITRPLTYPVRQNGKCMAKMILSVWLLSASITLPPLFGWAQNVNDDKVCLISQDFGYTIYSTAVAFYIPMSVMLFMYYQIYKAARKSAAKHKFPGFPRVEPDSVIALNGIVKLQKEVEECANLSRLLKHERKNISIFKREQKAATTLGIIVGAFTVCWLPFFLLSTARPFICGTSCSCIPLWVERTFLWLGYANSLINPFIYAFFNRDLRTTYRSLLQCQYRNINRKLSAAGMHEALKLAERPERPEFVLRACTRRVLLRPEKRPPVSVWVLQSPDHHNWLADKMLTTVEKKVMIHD

Row | SMILES | Ki [1] [µM] | inhibition at 10 µM [1] [%] | inhibition at 10 µM (5-HT1E) [%] | inhibition at 10 µM (5-HT2C) [%] | Ki (5-HT2C) [µM] | inhibition at 10 µM (5-HT6) [%] | inhibition at 10 µM (5-HT1A) [%]
1 | CC1CCN(CCCCC(=O)n2c3ccccc3c3ccccc32)CC1 [Example 2.20, 1-(9H-carbazol-9-yl)-5-(4-methylpiperidin-1-yl)pentan-1-one hydrochloride] | 0.592 | 80.2 | -19.3 | 44.4 | – | – | –
2 | CCCCN(C)CCCCCC(=O)n1c2ccccc2c2ccccc21 [Example 2.1, 6-(Butyl(methyl)amino)-1-(9H-carbazol-9-yl)hexan-1-one hydrochloride] | 0.68 | 82.8 | 51.3 | 87.4 | 0.207 | – | –
3 | CCCCN(C)CCCCCCn1c2ccccc2c2ccccc21 [Example 2.35, N-Butyl-6-(9H-carbazol-9-yl)-N-methylhexane-1-amine] | 0.511 | 70.7 | 55.7 | 59.4 | – | – | –
4 | CN(CCCCCC(=O)n1c2ccccc2c2ccccc21)Cc1ccccc1 [Example 2.2, 6-(Benzyl)methyl)amino)-1-(9H-carbazol-9-yl)hexan-1-one hydrochloride] | – | 92 | 10.2 | 54.6 | 1.32 | – | –
5 | CC1CCCN(CCCCCCn2c3ccccc3c3ccccc32)C1 (stereo not shown) [Example 2.39, 9-(6-(3-Methylpiperidin-1-yl)hexyl)-9H-carbazole] | 0.909 | 75.6 | 1.5 | – | – | – | –
6 | O=C(CCCCCN1CCN(Cc2ccccc2)CC1)n1c2ccccc2c2ccccc21 [Example 2.13, 6-(4-Benzylpiperazin-1-yl)-1-(9H-carbazol-9-yl)hexan-1-one hydrochloride] | 0.127 | 94.8 | – | 72.3 | – | 57.9 | 76.8
7 | CCCCN(C)CCCCC(=O)n1c2ccccc2c2ccccc21 [Example 2.17, 5-(Butyl(methyl)amino)-1-(9H-carbazol-9-yl)pentan-1-one hydrochloride] | 1.28 | 50 | 73.9 | – | – | – | –
8 | CN(CCCCCCn1c2ccccc2c2ccccc21)Cc1ccccc1 [Example 2.36, N-Benzyl-6-(9H-carbazol-9-yl)-N-methylhexane-1-amine] | 1.98 | 64 | -13.2 | – | – | – | –
9 | COc1ccccc1N1CCN(CCCCCC(=O)n2c3ccccc3c3ccccc32)CC1 [Example 2.16, 1-(9H-carbazol-9-yl)-6-(4-(2-methoxyphenyl)piperazin-1-yl)hexan-1-one] | 0.074 | 102 | – | 55.8 | – | 30.7 | 108
10 | CC1CC(C)CN(CCCCCCn2c3ccccc3c3ccccc32)C1 (stereo not shown) [Example 2.40, 9-(6-(3,5-Dimethylpiperidin-1-yl)hexyl)-9H-carbazole] | 1.6 | 57.7 | -7.3 | – | – | – | –
11 | CN(CCCCC(=O)n1c2ccccc2c2ccccc21)Cc1ccccc1 [Example 2.18, 5-(Benzyl(methyl)amino)-1-(9H-carbazol-9-yl)pentan-1-one hydrochloride] | 0.513 | 83.1 | -22.5 | 32.6 | – | – | –
12 | CC1CC(C)CN(CCCCC(=O)n2c3ccccc3c3ccccc32)C1 (stereo not shown) [Example 2.22, 1-(9H-carbazol-9-yl)-5-(3,5-dimethylpiperidin-1-yl)pentan-1-one hydrochloride] | 1.4 | 67.6 | -10.5 | 52.1 | 0.852 | – | –
13 | O=C(CCCCCN1CCCC1)n1c2ccccc2c2ccccc21 [Example 2.3, 1-(9H-carbazol-9-yl)-6-(pyrrolidin-1-yl)hexan-1-one hydrochloride] | 1.05 | 74 | 13.9 | 76.7 | 0.764 | – | –

Further lines, results first:

Row | Ki [1] [µM] | inhibition at 10 µM [1] [%] | inhibition at 10 µM (5-HT1E) [%] | inhibition at 10 µM (5-HT2C) [%] | Ki (5-HT2C) [µM] | inhibition at 10 µM (5-HT6) [%] | inhibition at 10 µM (5-HT1A) [%] | SMILES
14 | 0.282 | 92 | – | 38 | – | 57.4 | 66.5 | O=C(CCCCN1CCN(Cc2ccccc2)CC1)n1c2ccccc2c2ccccc21 [Example 2.29, 5-(4-Benzylpiperazinyl)-1-(9H-carbazol-9-yl)pentan-1-one hydrochloride]
15 | 1.55 | 66.9 | 21.1 | – | – | – | – | c1ccc2c(c1)c1ccccc1n2CCCCCCN1CCCC1 [Example 2.37, 9-(6-(Pyrrolidin-1-yl)hexyl)-9H-carbazole]
16 | 2.34 | 72.1 | – | 51.3 | – | 24.5 | 51.8 | CC(=O)N1CCN(CCCCCC(=O)n2c3ccccc3c3ccccc32)CC1 [Example 2.11, 6-(4-Acetylpiperazin-1-yl)-1-(9H-carbazol-9-yl)hexan-1-one hydrochloride]
17 | 0.833 | 77.2 | -21.9 | 80.6 | 0.454 | – | – | CC1CC(C)CN(CCCCCC(=O)n2c3ccccc3c3ccccc32)C1 (stereo not shown) [Example 2.6, 1-(9H-carbazol-9-yl)-6-(3,5-dimethylpiperidin-1-yl)hexan-1-one hydrochloride]
18 | 0.597 | 82.9 | -9.4 | – | – | – | – | CC1CCN(CCCCCCn2c3ccccc3c3ccccc32)CC1 [Example 2.38, 9-(6-(4-Methylpiperidin-1-yl)hexyl)-9H-carbazole]
19 | 0.616 | 86 | 1.8 | 77.2 | 0.411 | – | – | O=C(CCCCCN1CCCCCC1)n1c2ccccc2c2ccccc21 [Example 2.7, 6-(Azepan-1-yl)-1-(9H-carbazol-9-yl)hexan-1-one hydrochloride]
20 | 0.883 | 69.4 | -6 | 50 | – | – | – | CC1CCCN(CCCCC(=O)n2c3ccccc3c3ccccc32)C1 (stereo not shown) [Example 2.21, 1-(9H-carbazol-9-yl)-5-(3-methylpiperidin-1-yl)pentan-1-one hydrochloride]
21 | 0.949 | 77 | -11.7 | 55 | 1.09 | – | – | O=C(CCCCN1CCCCCC1)n1c2ccccc2c2ccccc21 [Example 2.23, 5-(Azepan-1-yl)-1-(9H-carbazol-9-yl)pentan-1-one hydrochloride]
22 | 1.91 | 50 | – | 82.5 | – | 77.6 | 5.5 | CN1CCN(CCCCCC(=O)n2c3ccccc3c3ccccc32)CC1 [Example 2.12, 1-(9H-carbazol-9-yl)-6-(4-methylpiperazin-1-yl)hexan-1-one hydrochloride]
23 | 0.952 | 71.3 | 2.7 | – | – | – | – | c1ccc2c(c1)c1ccccc1n2CCCCCCN1CCCCCC1 [Example 2.41, 9-(6-(Azepan-1-yl)hexyl)-9H-carbazole]
24 | 1.07 | 64.6 | – | 6.6 | – | 13.8 | 25.4 | CC(=O)N1CCN(CCCCC(=O)n2c3ccccc3c3ccccc32)CC1 [Example 2.27, 5-(4-Acetylpiperazin-1-yl)-1-(9H-carbazol-9-yl)pentan-1-one hydrochloride]
25 | 0.55 | 84.6 | -15.3 | 86.6 | 0.486 | – | – | CC1CCCN(CCCCCC(=O)n2c3ccccc3c3ccccc32)C1 (stereo not shown) [Example 2.5, 1-(9H-carbazol-9-yl)-6-(3-methylpiperidin-1-yl)hexan-1-one hydrochloride]
